Assay results published in patent publication US4652553A, “Steroidal glycolipids as host resistance stimulators” (priority 1985, dated 1987).

Tested on: Pseudomonas aeruginosa
Test: In vivo protection of cyclophosphamide-immunocompromised mice against Pseudomonas aeruginosa (LD50, protective index)
Set-up: species or system Pseudomonas aeruginosa (Immunotype 1); CFl female mice
Conditions: Table 3; cyclophosphamide-treated mice; dose not stated in table (initial test dose 40 mg per kg)
Protocol: Groups of 15-20 CFl femal mice (Charles River Breeding, Cambridge, MA) weighing 22-28 gm were injected intraperitoneally (i.p.) with cyclophosphamide (Cytoxan; CY) at 250 mg per kg body weight. One to two hours later they were typically injected again with the test material by the route specified. Four days later, the mice were divided into groups of five, each of which were injected i.p. with a different dilution of a suspension of Pseudomonas aeruginosa (Immunotype 1). The number of survivors was determined periodically and an estimate was made of the number of CFU of Pseudomonas organisms necessary to cause 50% lethality by the cumulative method of L. J. Reed and H. Muench (Am. J. Hygiene 27 (1938) 493-497). A protective index (P.I.) was defined as the LD50 for the mice receiving cyclophosphamide and the test compound divided by the LD50 for the mice recieving cyclophosphamide alone. All control mice were injected with aqueous vehicle in the same route and schedule as the test animals.
All compounds for dosing were suspended in a sterile medium referred to as "aqueous vehicle" which contains 0.9% sodium chloride, 0.5% carboxymethyl cellulose, 0.4% Tween 80, and 0.9% benzyl alcohol unless otherwise stated. Test materials were evaluated via subcutaneous (s.c.), i.p., intramuscular (i.m.), orally (p.o.). and intravenous (i.v.) routes of administration. […]

C[C@H](N)[C@H]1CC[C@H]2[C@@H]3CC=C4C[C@@H](OCCCCCCS[C@@H]5O[C@H](CO)[C@@H](O)[C@H](O)[C@@H]5O)CC[C@]4(C)[C@H]3CC[C@]12C [Example 14, 6-(20S-Amino-pregn-5-en-3β-yloxy)hexyl 1-thio-β-D-mannopyranoside]
Protective Index (log): 4.37 log
